Experimental data as given in article PMC2211469, “Viroporin potential of the lentivirus lytic peptide (LLP) domains of the HIV-1 gp41 protein” (Virology Journal, 2007).

Experiment: Tb3+/DPA microwell plate leakage assay
Conditions: positive control, complete dissolution of membranes
Procedure: The Tb^3+/DPA assay, a high throughput leakage assay developed by Rausch and Wimley, 2001, was employed in order to determine each LLP peptide's ability to disturb lipid membrane integrity. […] To this end, Tb^3+ was entrapped in Large Unilamellar Vesicles composed of 10% POPG: 90% POPC diluted in a KPO4 buffer containing DPA. Only upon membrane disruption was terbium able to come into contact with DPA in the buffer generating a fluorescent complex. Various ratios of peptide:lipid were incubated together in a microwell plate and the resulting fluorescence emissions were monitored under UV irradiation. LLP -1, -2, and -1D peptides used in this study were not NBD labeled, but were N-terminally labeled with a tryptophan residue for quantification.
To prepare Tb^3+ LUVs, lipids were resuspended to 100 mM concentration in 50 mM Tb^3+, 100 mM sodium citrate, 10 mM TES pH 7.2. Gel Filtration on Sephadex G-200 was used to elute LUVs and remove unencapsulated Tb^3+ in a buffer of 10 mM TES and 325 mM NaCl. Final lipid concentrations were determined by phosphate analysis. […] Finally, samples were heated in a water bath with AmMo and ascorbic acid for 10–15 minutes and absorbance at 660 nm was measured. Concentrations were determined by comparison to a standard curve generated using known KPO4 concentrations. […]

Triton X-100
leakage of vesicles: 100%
